Laboratory results taken from ChEMBL document CHEMBL1201862, “PubChem BioAssay data set” (2004).
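96-well plates; 48 h exposure; 5 concentrations. Endpoints by linear interpolation between flanking doses. Not reached: highest tested concentration assigned. GI50 is the concentration that inhibits growth by half.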 The source made the active and inactive calls. No stated cut-off is given here; in the data, active = GI50 up to about 1.1 µM and inactive = higher.

Key:
Assay in all cases: NCI-60 cell line screen, 48 h
[1] = test system: SNB-75
[2] = test system: COLO 205
[3] = test system: KM-20L2
[4] = test system: NCI-H460
[5] = test system: SF-268
[6] = test system: SK-MEL-5
[7] = test system: TK-10
[8] = test system: HOP-62
[9] = test system: HL-60
[10] = test system: SN12C
[11] = test system: SK-OV-3
[12] = test system: 786-0
[13] = test system: CAKI-1
[14] = test system: LXFL 529
[15] = test system: A498
[16] = test system: HT-29
[17] = test system: DU-145
[18] = test system: Hs-578T
[19] = test system: T47D
[20] = test system: MDA-MB-231

SMILES | GI50 [1] | GI50 [2] | GI50 [3] | GI50 [4] | GI50 [5] | GI50 [6] | GI50 [7] | GI50 [8] | GI50 [9] | GI50 [10] | GI50 [11] | GI50 [12] | GI50 [13] | GI50 [14] | GI50 [15] | GI50 [16] | GI50 [17] | GI50 [18] | GI50 [19] | GI50 [20]
CCOc1ccc(/C=C/c2cc(OC)c(OC)c(OC)c2)cc1 | 0.701 µM (active) | 0.635 µM (active) | 0.82 µM (active) | 1.05 µM (active) | 2.18 µM (inactive) | 0.556 µM (active) | 8.83 µM (inactive) | 0.392 µM (active) | 0.509 µM (active) | 4.02 µM (inactive) | 1.4 µM (inactive) | 3.05 µM (inactive) | 0.564 µM (active) | 0.809 µM (active) | 0.439 µM (active) | 0.653 µM (active) |  |  |  | 
O=C1c2ccccc2C2(O)Nc3cc(O)ccc3C12O (centres undefined) | > 100 µM (inactive) | > 100 µM (inactive) | > 100 µM (inactive) | > 100 µM (inactive) | > 100 µM (inactive) | > 100 µM (inactive) | > 100 µM (inactive) | > 100 µM (inactive) | > 100 µM (inactive) | > 100 µM (inactive) | > 100 µM (inactive) | > 100 µM (inactive) | > 100 µM (inactive) | > 100 µM (inactive) | > 100 µM (inactive) | > 100 µM (inactive) |  |  |  | 
O=C1c2ccccc2C(=O)c2c1ccc1conc21 | 7.59 µM (inactive) | 5.65 µM (inactive) | 15.4 µM (inactive) | 5.51 µM (inactive) | 2.56 µM (inactive) | 1.92 µM (inactive) | 6.44 µM (inactive) | 4.3 µM (inactive) | 0.402 µM (active) | 1.87 µM (inactive) | 6.46 µM (inactive) | 2.75 µM (inactive) | 4.22 µM (inactive) | 1.8 µM (inactive) | 11.9 µM (inactive) | 4.37 µM (inactive) | 2.59 µM (inactive) | 8.93 µM (inactive) | 0.398 µM (active) | 0.221 µM (active)
CN1CCC(c2c(O)cc(O)c3c(=O)cc(-c4ccccc4Cl)oc23)C(O)C1 (centres undefined) | 0.0219 µM (active) | 0.0811 µM (active) | 0.217 µM (active) | 0.0592 µM (active) | 0.0467 µM (active) | 0.0344 µM (active) | 0.219 µM (active) | 0.018 µM (active) | 0.0197 µM (active) | 0.143 µM (active) | 0.571 µM (active) | 0.0498 µM (active) | 0.0628 µM (active) | 0.0769 µM (active) | 0.117 µM (active) | 0.156 µM (active) |  |  |  | 
Cc1cc(C)nc(NS(=O)(=O)c2ccc(Nc3c4ccc(Cl)cc4nc4c(C(=O)NCCN(C)C)cccc34)cc2)n1 | > 100 µM (inactive) | > 100 µM (inactive) | > 100 µM (inactive) | > 100 µM (inactive) | > 100 µM (inactive) | > 100 µM (inactive) | > 100 µM (inactive) | > 100 µM (inactive) | > 100 µM (inactive) | > 100 µM (inactive) | > 100 µM (inactive) | > 100 µM (inactive) | > 100 µM (inactive) | > 100 µM (inactive) | > 100 µM (inactive) | > 100 µM (inactive) |  |  |  | 
